Source: ChEMBL document CHEMBL1149748, “Studies on Formosan soft corals. II. Cytotoxic cembranolides from the soft coral Lobophytum michaelae” (1992)
Values after ≈ are worked out from the molar mass of the structure shown.

What was measured:
Assay type in all cases: functional
HT-29 = test: Cytotoxicity against human HT-29 cells after 6 days by MTT assay; details: HT-29, 144 h, read-out: ED50 (the source's name)
A549 = test: Cytotoxicity against human A549 cells after 6 days by MTT assay; details: A549, 144 h, read-out: ED50 (the source's name)
P388 = test: Cytotoxicity against mouse P388 cells after 3 days by MTT assay; details: P388, 72 h, read-out: ED50 (the source's name)
KB = test: Cytotoxicity against human KB cells after 3 days by MTT assay; details: 72 h, read-out: ED50 (the source's name)

C=C1C(=O)O[C@@H]2[C@H]1[C@H](OC(C)=O)C/C(C)=C/C[C@H](OC(C)=O)/C(C)=C/C[C@@H](OC(C)=O)[C@]1(C)O[C@@H]21 [CRASSOLIDE]
EC50 (HT-29): 0.26 µg/mL (≈ 0.53 µM)
EC50 (A549): 0.39 µg/mL (≈ 0.795 µM)
EC50 (P388): 0.08 µg/mL (≈ 0.163 µM)
EC50 (KB): 0.85 µg/mL (≈ 1.73 µM)

C=C1C(=O)O[C@@H]2[C@H]1[C@@H](OC(C)=O)C/C(C)=C/[C@@H](OC(C)=O)C/C(C)=C/CC[C@@]1(C)O[C@H]21 [LOBOMICHAOLIDE]
EC50 (HT-29): 0.37 µg/mL (≈ 0.855 µM)
EC50 (A549): 0.38 µg/mL (≈ 0.879 µM)
EC50 (P388): 0.34 µg/mL (≈ 0.786 µM)
EC50 (KB): 0.59 µg/mL (≈ 1.36 µM)
